Assay results from patent US8952024B2, “Herbicidal pyrimidone derivatives” (E I du Pont de Nemours and Company, priority 2009, dated 2015).

Experiments:
Format in all cases: in vivo
[1] = test system: barnyardgrass (Echinochloa crus-galli); test: Test A pre-/postemergence plant response
Excerpt: (§1) Seeds of barnyardgrass (Echinochloa crus-galli), large crabgrass (Digitaria sanguinalis), giant foxtail (Setaria faberii), morningglory (Ipomoea spp.), pigweed (Amaranthus retroflexus), velvetleaf (Abutilon theophrasti), wheat (Triticum aestivum) and corn (Zea mays) were planted into a blend of loam soil and sand and treated preemergence with a directed soil spray using test chemicals formulated in a non-phytotoxic solvent mixture which included a surfactant. At the same time these species were also treated with postemergence applications of test compounds formulated in the same manner.
(§2) Plants ranged in height from two to ten cm and were in the one- to two-leaf stage for the postemergence treatment. Treated plants and untreated controls were maintained in a greenhouse for approximately ten days, after which time all treated plants were compared to untreated controls and visually evaluated for injury. Plant response ratings, summarized in Table A, are based on a 0 to 100 scale where 0 is no effect and 100 is complete control. A dash (-) response means no test result.

[2] = test system: pigweed (Amaranthus retroflexus); test: Test A pre-/postemergence plant response
Excerpt: as §1, §2

corn (Zea mays) = test: Test A pre-/postemergence plant response
Excerpt: as §1, §2

[3] = test system: velvetleaf (Abutilon theophrasti); test: Test A pre-/postemergence plant response
Excerpt: as §1, §2

[4] = test system: large crabgrass (Digitaria sanguinalis); test: Test A pre-/postemergence plant response
Excerpt: as §1, §2

[5] = test system: wheat (Triticum aestivum); test: Test A pre-/postemergence plant response
Excerpt: as §1, §2

[6] = test system: giant foxtail (Setaria faberii); test: Test A pre-/postemergence plant response
Excerpt: as §1, §2

[7] = test system: morningglory (Ipomoea spp.); test: Test A pre-/postemergence plant response
Excerpt: as §1, §2

rice (Oryza sativa) = test: Test B flooded paddy test; details: for Plant response rating, Flood, Rice: 250 g ai/ha, flooded paddy test, visual rating on 0 to 100 scale (0 no effect, 100 complete control) after 13 to 15 days; for Plant response rating, Rice: Flood (flooded paddy test), 13 to 15 days; for Rice plant response rating: Flood, 31 g ai/ha, scale 0 to 100 (0 no effect, 100 complete control)
Outline: (§3)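 Post-flood paddy application: compounds are introduced into water 3 cm deep over the soil, reaching plants at the 2-leaf stage. The water level is maintained, and after 13–15 days under greenhouse conditions, response is judged by eye relative to controls, where 100 means complete control.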

[8] = test system: ducksalad (Heteranthera limosa); test: Test B flooded paddy test; details: for Plant response rating, Flood, Ducksalad: 250 g ai/ha, flooded paddy test, visual rating on 0 to 100 scale (0 no effect, 100 complete control) after 13 to 15 days; for Plant response rating, Ducksalad: Flood (flooded paddy test), 13 to 15 days; for Ducksalad plant response rating: Flood, 31 g ai/ha, scale 0 to 100 (0 no effect, 100 complete control)
Outline: as §3

[9] = test system: barnyardgrass (Echinochloa crus-galli); test: Test B flooded paddy test; details: for Plant response rating, Flood, Barnyardgrass: 250 g ai/ha, flooded paddy test, visual rating on 0 to 100 scale (0 no effect, 100 complete control) after 13 to 15 days; for Plant response rating, Barnyardgrass: Flood (flooded paddy test), 13 to 15 days; for Barnyardgrass plant response rating: Flood, 31 g ai/ha, scale 0 to 100 (0 no effect, 100 complete control)
Outline: as §3

[10] = test system: umbrella sedge (Cyperus difformis); test: Test B flooded paddy test; details: for Plant response rating, Flood, Sedge, Umbrella: 250 g ai/ha, flooded paddy test, visual rating on 0 to 100 scale (0 no effect, 100 complete control) after 13 to 15 days; for Plant response rating, Sedge, Umbrella: Flood (flooded paddy test), 13 to 15 days; for Sedge, Umbrella plant response rating: Flood, 31 g ai/ha, scale 0 to 100 (0 no effect, 100 complete control)
Outline: as §3

[11] = Postemergence, 125 g ai/ha, 0 to 100 scale where 0 is no effect and 100 is complete control
[12] = Postemergence, 500 g ai/ha, 0 to 100 scale, 0 = no effect, 100 = complete control, approx. ten days
[13] = Preemergence, 125 g ai/ha, 0 to 100 scale, 0 = no effect, 100 = complete control
[14] = Preemergence, 500 g ai/ha, visual injury, 0 to 100 scale (0 no effect, 100 complete control), approx. ten days
[15] = Preemergence, 500 g ai/ha, 0 to 100 scale, 0 = no effect, 100 = complete control
[16] = 62 g ai/ha, scale of 0 to 100 where 0 is no effect and 100 is complete control
[17] = 125 g ai/ha, scale 0 to 100, 0 is no effect, 100 is complete control

Compound: COc1ccc(-n2c(-c3cccc(Cl)c3)ncc(C(=O)C3=C(O)CCCC3=O)c2=O)cc1 [Compound 151]
- Plant response rating, Barnyardgrass [1, 11]: 60
- Plant response rating, Barnyardgrass [1, 12]: 90
- Plant response rating, Barnyardgrass [1, 13]: 20
- Plant response rating, Barnyardgrass [1, 14]: 100
- Plant response rating, Pigweed [2, 11]: 100
- Plant response rating, Pigweed [2, 12]: 100
- Plant response rating, Pigweed [2, 13]: 50
- Plant response rating, Pigweed [2, 14]: 70
- Plant response rating, Corn (corn (Zea mays); [11]): 0
- Plant response rating, Corn (corn (Zea mays); [12]): 10
- Plant response rating, Corn (corn (Zea mays); [13]): 0
- Plant response rating, Corn (corn (Zea mays); [14]): 0
- Plant response rating, Velvetleaf [3, 11]: 100
- Plant response rating, Velvetleaf [3, 12]: 100
- Plant response rating, Velvetleaf [3, 13]: 50
- Plant response rating, Velvetleaf [3, 15]: 70
- Plant response rating, Crabgrass, Large [4, 11]: 30
- Plant response rating, Crabgrass, Large [4, 12]: 70
- Plant response rating, Crabgrass, Large [4, 13]: 10
- Plant response rating, Crabgrass, Large [4, 14]: 50
- Plant response rating, Wheat [5, 11]: 0
- Plant response rating, Wheat [5, 12]: 20
- Plant response rating, Wheat [5, 13]: 0
- Plant response rating, Wheat [5, 15]: 20
- Plant response rating, Foxtail, Giant [6, 11]: 20
- Plant response rating, Foxtail, Giant [6, 12]: 70
- Plant response rating, Foxtail, Giant [6, 13]: 20
- Plant response rating, Foxtail, Giant [6, 14]: 60
- Plant response rating, Morningglory [7, 11]: 40
- Plant response rating, Morningglory [7, 12]: 100
- Plant response rating, Morningglory [7, 14]: 30
- Plant response rating, Flood, Rice (rice (Oryza sativa)): 50
- Plant response rating, Rice (rice (Oryza sativa); [16]): 0
- Plant response rating, Rice (rice (Oryza sativa); [17]): 15
- Rice plant response rating (rice (Oryza sativa)): 20
- Plant response rating, Flood, Ducksalad [8]: 100
- Plant response rating, Ducksalad [8, 16]: 80
- Plant response rating, Ducksalad [8, 17]: 100
- Ducksalad plant response rating [8]: 80
- Plant response rating, Flood, Barnyardgrass [9]: 55
- Plant response rating, Barnyardgrass [9, 16]: 15
- Plant response rating, Barnyardgrass [9, 17]: 30
- Barnyardgrass plant response rating [9]: 0
- Plant response rating, Flood, Sedge, Umbrella [10]: 100
- Plant response rating, Sedge, Umbrella [10, 16]: 85
- Plant response rating, Sedge, Umbrella [10, 17]: 100
- Sedge, Umbrella plant response rating [10]: 85

Compound: CCCn1c(C2CC2)ncc(C(=O)C2=C(O)CCCC2=O)c1=O [Compound 153]
- Plant response rating, Barnyardgrass [1, 11]: 80
- Plant response rating, Barnyardgrass [1, 12]: 90
- Plant response rating, Barnyardgrass [1, 13]: 40
- Plant response rating, Barnyardgrass [1, 14]: 80
- Plant response rating, Pigweed [2, 11]: 100
- Plant response rating, Pigweed [2, 12]: 100
- Plant response rating, Pigweed [2, 13]: 100
- Plant response rating, Pigweed [2, 14]: 100
- Plant response rating, Corn (corn (Zea mays); [11]): 0
- Plant response rating, Corn (corn (Zea mays); [12]): 20
- Plant response rating, Corn (corn (Zea mays); [13]): 20
- Plant response rating, Corn (corn (Zea mays); [14]): 20
- Plant response rating, Velvetleaf [3, 11]: 100
- Plant response rating, Velvetleaf [3, 12]: 100
- Plant response rating, Velvetleaf [3, 13]: 100
- Plant response rating, Velvetleaf [3, 15]: 100
- Plant response rating, Crabgrass, Large [4, 11]: 90
- Plant response rating, Crabgrass, Large [4, 12]: 90
- Plant response rating, Crabgrass, Large [4, 13]: 80
- Plant response rating, Crabgrass, Large [4, 14]: 100
- Plant response rating, Wheat [5, 11]: 0
- Plant response rating, Wheat [5, 12]: 10
- Plant response rating, Wheat [5, 13]: 0
- Plant response rating, Wheat [5, 15]: 20
- Plant response rating, Foxtail, Giant [6, 11]: 70
- Plant response rating, Foxtail, Giant [6, 12]: 80
- Plant response rating, Foxtail, Giant [6, 13]: 20
- Plant response rating, Foxtail, Giant [6, 14]: 70
- Plant response rating, Morningglory [7, 11]: 50
- Plant response rating, Morningglory [7, 12]: 60
- Plant response rating, Morningglory [7, 13]: 20
- Plant response rating, Morningglory [7, 14]: 70
- Plant response rating, Flood, Rice (rice (Oryza sativa)): 65
- Plant response rating, Rice (rice (Oryza sativa); [16]): 35
- Plant response rating, Rice (rice (Oryza sativa); [17]): 55
- Rice plant response rating (rice (Oryza sativa)): 35
- Plant response rating, Flood, Ducksalad [8]: 100
- Plant response rating, Ducksalad [8, 16]: 65
- Plant response rating, Ducksalad [8, 17]: 100
- Ducksalad plant response rating [8]: 0
- Plant response rating, Flood, Barnyardgrass [9]: 45
- Plant response rating, Barnyardgrass [9, 16]: 0
- Plant response rating, Barnyardgrass [9, 17]: 35
- Barnyardgrass plant response rating [9]: 0
- Plant response rating, Flood, Sedge, Umbrella [10]: 95
- Plant response rating, Sedge, Umbrella [10, 16]: 0
- Plant response rating, Sedge, Umbrella [10, 17]: 80
- Sedge, Umbrella plant response rating [10]: 0
